Data reported in patent US20110190309A1, “PHARMACEUTICAL PRODUCT COMPRISING A […] RECEPTOR ANTAGONIST AND A Beta2-ADRENOCEPTOR AGONIST” (priority 2008, published 2011).
“And” between values parts separate entries of the source, which are not always exact repeats. Equal entries are not always repeated. Structures can show the parent of a compound that is named as a salt. Where two headings read alike, the source gives them in different places.

Experiments:
[1] = Gravimetric Vapour Sorption (GVS); format: physicochemical; conditions: at 80% RH
Experimental: Gravimetric Vapour Sorption (GVS) profiles were measured using a Surface Measurements Systems Dynamic Vapour Sorption DVS-1, or DVS Advantage GVS instruments. The solid sample ca. 1-5 mg was placed into a glass or wire mesh vessel and the weight of the sample was recorded during a dual cycle step method (40 to 90 to 0 to 90 to 0% relative humidity (RH), in steps of 10% RH).

[2] = molecular target: T1, human muscarinic receptors (M3) (Homo sapiens, UniProt P20309); assay: Muscarinic Receptor Radioligand Binding Assay ([3H]-NMS); conditions: human M3 membranes
T1 construct: purchased
Experimental: The inhibitory effects of compounds of the muscarinic antagonists were determined by a Muscarinic Receptor Radioligand Binding Assay. Radioligand binding studies utilising [^3H]-N-methyl scopolamine ([^3H]-NMS) and commercially available cell membranes expressing the human muscarinic receptors (M2 or M3) were used to assess the affinity of muscarinic antagonists for M2 and M3 receptors. Membranes in TRIS buffer were incubated in 96-well plates with [^3H]-NMS and M3 antagonist at various concentrations for 3 hours. Membranes and bound radioligand were then harvested by filtration and allowed to dry overnight. Scintillation fluid was then added and the bound radioligand counted using a Can berra Packard Topcount scintillation counter

guinea pig trachea = assay: Bronchodilator activity in the guinea pig isolated tracheal ring preparation; conditions: methacholine 1 μM, 60 min, mean±s.e.mean
Experimental: Guinea pigs (300-500 g) were killed by cervical dislocation and the trachea was isolated. The trachea was cut into segments 2-3 cartilage rings in width and suspended in 10 ml organ baths in modified Krebs' solution (mM; NaCl, 90; NaHCO3, 45; KCl, 5; MgSO4.7H2O, 0.5; Na2HPO4.2H2O, 1; CaCl2, 2.25; glucose, 10; pH 7.4 gassed with 5% CO2, 95% O2 at 37° C.). The tracheal rings were attached to an isometric force transducer for the measurement of isometric tension. The tissues were washed and a force of 1 g was applied to each tissue. The rings were contracted with methacholine (1 μM). Once the contraction had reached a plateau, vehicle (0.01% DMSO in distilled H2O), indacaterol (10 nM), N-[2-(Diethylamino)ethyl]-N-(2-{[2-(4-hydroxy-2-oxo-2,3-dihydro-1,3-benzothiazol-7-yl)ethyl]amino}ethyl)-3-[2-(1-naphthyl)ethoxy]propanamide dihydrobromide (10 nM), N-Cyclohexyl-N^3-[2-(3-fluorophenyl)ethyl]-N-(2-{[2-(4-hydroxy-2-oxo-2,3-dihydro-1,3-benzothiazol-7-yl)ethyl]amino}ethyl)-(3-alaninamide di-D-mandelate salt (1 nM), (R)-3-(1-Phenyl-cycloheptanecarbonyloxy)-1-(pyridin-2-ylcarbamoylmethyl)-1-azonia-bicyclo[2.2.2]octane bromide (1 nM), a combination of (R)-3-(1-Phenyl-cycloheptanecarbonyloxy)-1-(pyridin-2-ylcarbamoylmethyl)-1-azonia-bicyclo[2.2.2]octane bromide (1 nM) and indacaterol (10 nM), a combination of N-[2-(Diethylamino)ethyl]-N-(2-{[2-(4-hydroxy-2-oxo-2,3-dihydro-1,3-benzothiazol-7-yl)ethyl]amino}ethyl)-3-[2-(1-naphthyl)ethoxy]propanamide dihydrobromide (10 nM) and (R)-3-(1-Phenyl-cycloheptanecarbonyloxy)-1-(pyridin-2-ylcarbamoylmethyl)-1-azonia-bicyclo[2.2.2]octane bromide (1 nM) and, or a combination of N-Cyclohexyl-N^3-[2-(3-fluorophenyl)ethyl]-N-(2-{[2-(4-hydroxy-2-oxo-2,3-dihydro-1,3-benzothiazol-7-yl)ethyl]amino}ethyl)-β-alaninamide di-D-mandelate salt (1 nM) and (R)-3-(1-Phenyl-cycloheptanecarbonyloxy)-1-(pyridin-2-ylcarbamoylmethyl)-1-azonia-bicyclo[2.2.2]octane bromide (1 nM) was added and the tissue left for 60 min. The tension was measured in each ring at 60 min following compound addition and was expressed as a % relaxation of the constriction to methacholine (1 μM) (mean±s.e.mean). Data were collected using the Chart 4 software (ADInstruments, Charlgrove, UK).

β2 = molecular target: T2, β2 (Homo sapiens, UniProt P07550); assay: Adrenergic β2 mediated cAMP production in H292 cells (AlphaScreen); format: cell-based; conditions: Intrinsic Activity as a fraction relative to the maximum activity of formoterol
T2 construct: endogenous in cells; host or cells: H292 cells
Experimental: H292 cells were grown in 225 cm2 flasks incubator at 37° C., 5% CO2 in RPMI medium containing, 10% (v/v) FBS (foetal bovine serum) and 2 mM L-glutamine.
Adherent H292 cells were removed from tissue culture flasks by treatment with Accutase™ cell detachment solution for 15 minutes. Flasks were incubated for 15 minutes in a humidified incubator at 37° C., 5% CO2. Detached cells were re-suspended in RPMI media (containing 10% (v/v) FBS and 2 mM L-glutamine) at 0.05×10^6 cells per mL. 5000 cells in 100 μL were added to each well of a tissue-culture-treated 96-well plate and the cells incubated overnight in a humidified incubator at 37° C., 5% CO2. The culture media was removed and cells were washed twice with 100 μL assay buffer and replaced with 50 μL assay buffer (HBSS solution containing 10 mM HEPES pH7.4 and 5 mM glucose). Cells were rested at room temperature for 20 minutes after which time 25 μL of rolipram (1.2 mM made up in assay buffer containing 2.4% (v/v) dimethylsulphoxide) was added. Cells were incubated with rolipram for 10 minutes after which time Compound A was added and the cells were incubated for 60 minutes at room temperature. The final rolipram concentration in the assay was 300 μM and final vehicle concentration was 1.6% (v/v) dimethylsulphoxide. The reaction was stopped by removing supernatants, washing once with 100 μL assay buffer and replacing with 50 μL lysis buffer. The cell monolayer was frozen at −80° C. for 30 minutes (or overnight).
The concentration of cAMP (cyclic adenosine monophosphate) in the cell lysate was determined using AlphaScreen™ methodology. […] The AlphaScreen™ signal was measured using an EnVision spectrophotometer (Perkin-Elmer Inc.) with the recommended manufacturer's settings. cAMP concentrations were determined by reference to a calibration curve determined in the same experiment using standard cAMP concentrations. […] Intrinsic Activity was expressed as a fraction relative to the maximum activity determined for formoterol in each experiment.

[3] = class symbols of M3 Binding IC50, read-out: M3 pIC50 (converted)

T1 sequence (P20309 whole entry): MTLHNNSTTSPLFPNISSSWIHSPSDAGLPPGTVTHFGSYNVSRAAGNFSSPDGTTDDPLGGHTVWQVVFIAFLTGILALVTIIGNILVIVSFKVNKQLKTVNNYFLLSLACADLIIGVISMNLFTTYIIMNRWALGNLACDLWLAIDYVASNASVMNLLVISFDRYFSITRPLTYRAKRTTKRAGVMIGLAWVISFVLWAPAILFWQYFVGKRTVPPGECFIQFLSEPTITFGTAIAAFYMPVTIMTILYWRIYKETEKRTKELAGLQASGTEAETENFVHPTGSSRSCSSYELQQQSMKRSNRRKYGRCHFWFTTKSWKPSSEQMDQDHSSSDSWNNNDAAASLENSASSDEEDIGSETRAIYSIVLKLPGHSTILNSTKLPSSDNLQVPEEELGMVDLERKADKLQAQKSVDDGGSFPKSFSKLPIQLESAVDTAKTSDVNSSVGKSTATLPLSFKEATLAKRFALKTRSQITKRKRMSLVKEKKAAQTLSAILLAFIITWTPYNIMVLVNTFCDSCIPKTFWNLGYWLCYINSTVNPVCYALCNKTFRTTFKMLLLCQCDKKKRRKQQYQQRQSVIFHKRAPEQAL
T2 sequence (P07550 whole entry): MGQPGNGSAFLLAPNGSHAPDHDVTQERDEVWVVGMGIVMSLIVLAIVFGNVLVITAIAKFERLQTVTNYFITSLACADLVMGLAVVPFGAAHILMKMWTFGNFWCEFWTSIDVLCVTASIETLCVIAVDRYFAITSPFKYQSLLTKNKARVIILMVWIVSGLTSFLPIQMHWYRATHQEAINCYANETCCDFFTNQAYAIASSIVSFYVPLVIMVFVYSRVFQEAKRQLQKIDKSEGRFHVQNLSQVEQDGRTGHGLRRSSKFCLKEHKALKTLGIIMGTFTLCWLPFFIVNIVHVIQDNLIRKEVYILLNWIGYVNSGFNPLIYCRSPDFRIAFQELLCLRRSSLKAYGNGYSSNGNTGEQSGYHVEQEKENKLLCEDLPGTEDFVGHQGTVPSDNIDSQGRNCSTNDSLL

Compound | GVS weight increase [1] | IC50 [2, 3] | further results
O=C(C[N+]12CCC(CC1)[C@@H](OC(=O)C1(c3ccccc3)CCCCCC1)C2)Nc1cnccn1 [Example 6, (R)-3-(1-Phenyl-cycloheptanecarbonyloxy)-1-(pyrazin-2-ylcarbamoylmethyl)-1-azonia-bicyclo[2.2.2]octane 2,5-dichloro-benzenesulfonate] | ~0.2 % w/w | – | –
O=C(C[N+]12CCC(CC1)[C@@H](OC(=O)C1(c3cccc(F)c3)CCCCCC1)C2)Nc1cnccn1 [Example 8, (R)-3-[1-(3-Fluoro-phenyl)-cycloheptanecarbonyloxy]-1-(pyrazin-2-ylcarbamoylmethyl)-1-azonia-bicyclo[2.2.2]octane bromide] | – | < 2 nM | –
O=C(C[N+]12CCC(CC1)[C@@H](OC(=O)C1(c3ccccc3)CCCCCC1)C2)Nc1cnccn1 [Example 7, (R)-3-(1-Phenyl-cycloheptanecarbonyloxy)-1-(pyrazin-2-ylcarbamoylmethyl)-1-azonia-bicyclo[2.2.2]octane hemi-naphthalene-1,5-disulfonate] | 1.6 % w/w | – | –
CCc1cc2c(cc1CC)CC(NC[C@H](O)c1ccc(O)c3[nH]c(=O)ccc13)C2 [indacaterol, reference compound] | – | – | percentage relaxation of the constriction to methacholine (guinea pig trachea; 10 nM): 24±6.9%
O=C(C[N+]12CCC(CC1)[C@@H](OC(=O)C1(c3ccccc3)CCCCCC1)C2)Nc1ccccn1.[Cl-] [Example 3, (R)-3-(1-Phenyl-cycloheptanecarbonyloxy)-1-(pyridin-2-ylcarbamoylmethyl)-1-azonia-bicyclo[2.2.2]octane chloride] | negligible | < 2 nM | –
O=C(C[N+]12CCC(CC1)[C@@H](OC(=O)C1(c3ccccc3)CCCCCC1)C2)Nc1cccnc1 [Example 12, (R)-3-(1-Phenyl-cycloheptanecarbonyloxy)-1-(pyridin-3-ylcarbamoylmethyl)-1-azonia-bicyclo[2.2.2]octane chloride] | – | < 2 nM | –
O=c1[nH]c2c(O)ccc([C@@H](O)CNCCSCCCNCCc3ccccc3Cl)c2s1 [BA3, 7-[(1R)-2-({2-[(3-{[2-(2-Chlorophenyl)ethyl]amino}propyl)thio]ethyl}amino)-1-hydroxyethyl]-4-hydroxy-1,3-benzothiazol-2(3H)-one dihydrobromide] | – | – | β2 Int Act (β2): 0.8
O=C(C[N+]12CCC(CC1)[C@@H](OC(=O)C1(c3ccccc3)CCCCCC1)C2)Nc1cnccn1.[Br-] [Example 1, (R)-3-(1-Phenyl-cycloheptanecarbonyloxy)-1-(pyrazin-2-ylcarbamoylmethyl)-1-azonia-bicyclo[2.2.2]octane bromide] | 3 % w/w | – | IC50 ([2]; read-out: M3 pIC50 (converted)): 0.0794 nM
Cc1cc(NC(=O)C[N+]23CCC(CC2)[C@@H](OC(=O)C2(c4ccccc4)CCCCCC2)C3)ccn1 [Example 11, (R)-1-[(2-Methyl-pyridin-4-ylcarbamoyl)-methyl]-3-(1-phenyl-cycloheptanecarbonyloxy)-1-azonia-bicyclo[2.2.2]octane chloride] | – | < 2 nM | –
O=C(C[N+]12CCC(CC1)[C@@H](OC(=O)C1(c3ccccc3)CCCCCC1)C2)Nc1ccccn1 [Example 14, (R)-3-(1-Phenyl-cycloheptanecarbonyloxy)-1-(pyridin-2-ylcarbamoylmethyl)-1-azonia-bicyclo[2.2.2]octane hemi-naphthalene-1,5-disulfonate] | 1 % w/w | – | –
O=C(C[N+]12CCC(CC1)[C@@H](OC(=O)C1(c3cccc(F)c3)CCCCCC1)C2)Nc1ccon1 [Example 9, (R)-3-[1-(3-Fluoro-phenyl)-cycloheptanecarbonyloxy]-1-(isoxazol-3-ylcarbamoylmethyl)-1-azonia-bicyclo[2.2.2]octane bromide] | – | < 2 nM | –
N-Cyclohexyl-N^3-[2-(3-fluorophenyl)ethyl]-N-(2-{[2-(4-hydroxy-2-oxo-2,3-dihydro-1,3-benzothiazol-7-yl)ethyl]amino}ethyl)-β-alaninamide di-D-mandelate [compound W] | – | – | percentage relaxation of the constriction to methacholine (guinea pig trachea; 1 nM): 23±10%
O=C(C[N+]12CCC(CC1)[C@@H](OC(=O)C1(c3ccccc3)CCCCCC1)C2)Nc1cnccn1.[Cl-] [Example 2, (R)-3-(1-Phenyl-cycloheptanecarbonyloxy)-1-(pyrazin-2-ylcarbamoylmethyl)-1-azonia-bicyclo[2.2.2]octane chloride] | 9 % w/w | – | –
O=C(C[N+]12CCC(CC1)[C@@H](OC(=O)C1(c3ccccc3)CCCCCC1)C2)Nc1cnccn1 [Example 5, (R)-3-(1-Phenyl-cycloheptanecarbonyloxy)-1-(pyrazin-2-ylcarbamoylmethyl)-1-azonia-bicyclo[2.2.2]octane 1-hydroxy-naphthalene-2-sulfonate] | ~0.3 % w/w | – | –
O=C(C[N+]12CCC(CC1)[C@@H](OC(=O)C1(c3ccccc3)CCCCCC1)C2)Nc1cccnn1 [Example 13, (R)-3-(1-Phenyl-cycloheptanecarbonyloxy)-1-(pyridazin-3-ylcarbamoylmethyl)-1-azonia-bicyclo[2.2.2]octane bromide] | – | < 2 nM | –
O=C(C[N+]12CCC(CC1)[C@@H](OC(=O)C1(c3ccccc3)CCCCCC1)C2)Nc1ccccn1.[Br-] [Example 4, (R)-3-(1-Phenyl-cycloheptanecarbonyloxy)-1-(pyridin-2-ylcarbamoylmethyl)-1-azonia-bicyclo[2.2.2]octane bromide] | negligible | – | percentage relaxation of the constriction to methacholine (guinea pig trachea; 1 nM, listed as Compound Z): 9±9.4%; percentage relaxation of the constriction to methacholine (guinea pig trachea; 1 nM, listed as compound Z): 9±4.3% and 5±1.8%
O=C(C[N+]12CCC(CC1)[C@@H](OC(=O)C1(c3ccccc3)CCCCCC1)C2)Nc1ccc(F)cn1 [Example 10, (R)-1-[(5-Fluoro-pyridin-2-ylcarbamoyl)-methyl]-3-(1-phenyl-cycloheptanecarbonyloxy)-1-azonia-bicyclo[2.2.2]octane chloride] | – | < 2 nM | –
